pIC50: −log10 of the molar value. Like-named read-outs stand apart in the source and are kept apart here. Where a SMILES comes first, the peptide text is derived from it. Where no end group is shown, it is not given here.
Target: T1, nidogen (Mus musculus, UniProt P10493)
T1 sequence (P10493 29-1245): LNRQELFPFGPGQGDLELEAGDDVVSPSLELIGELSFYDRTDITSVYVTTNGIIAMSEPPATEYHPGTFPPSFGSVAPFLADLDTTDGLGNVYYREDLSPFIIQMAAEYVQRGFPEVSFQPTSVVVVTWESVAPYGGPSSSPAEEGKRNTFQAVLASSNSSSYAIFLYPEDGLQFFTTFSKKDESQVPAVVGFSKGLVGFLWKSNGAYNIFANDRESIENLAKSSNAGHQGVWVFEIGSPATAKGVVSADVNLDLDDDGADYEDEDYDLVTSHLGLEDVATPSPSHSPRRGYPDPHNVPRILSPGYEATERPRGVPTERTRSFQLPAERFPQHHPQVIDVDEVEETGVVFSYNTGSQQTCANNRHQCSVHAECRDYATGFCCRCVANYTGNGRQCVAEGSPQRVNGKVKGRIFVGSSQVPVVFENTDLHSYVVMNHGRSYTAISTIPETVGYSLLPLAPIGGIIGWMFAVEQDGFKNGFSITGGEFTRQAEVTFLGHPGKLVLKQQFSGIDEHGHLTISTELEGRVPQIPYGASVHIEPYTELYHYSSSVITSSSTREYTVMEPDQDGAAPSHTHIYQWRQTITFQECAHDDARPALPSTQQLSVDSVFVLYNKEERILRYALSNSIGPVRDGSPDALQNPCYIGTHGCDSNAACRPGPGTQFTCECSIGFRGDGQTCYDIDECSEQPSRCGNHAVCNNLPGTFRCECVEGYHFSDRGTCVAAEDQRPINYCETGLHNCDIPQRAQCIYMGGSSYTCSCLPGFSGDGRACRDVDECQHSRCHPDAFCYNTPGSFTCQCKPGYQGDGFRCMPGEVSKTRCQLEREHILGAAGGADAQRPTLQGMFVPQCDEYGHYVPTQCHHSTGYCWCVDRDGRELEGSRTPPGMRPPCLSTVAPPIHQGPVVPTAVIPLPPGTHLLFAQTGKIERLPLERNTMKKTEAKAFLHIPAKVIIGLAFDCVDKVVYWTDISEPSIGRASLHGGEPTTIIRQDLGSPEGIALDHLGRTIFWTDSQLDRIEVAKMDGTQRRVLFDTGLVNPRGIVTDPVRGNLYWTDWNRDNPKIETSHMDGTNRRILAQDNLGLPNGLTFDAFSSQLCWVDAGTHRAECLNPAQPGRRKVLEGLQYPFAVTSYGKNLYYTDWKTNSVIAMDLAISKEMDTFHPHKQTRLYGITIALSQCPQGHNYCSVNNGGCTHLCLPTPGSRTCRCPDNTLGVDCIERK
Assay: Radioligand competition assay: inhibition of 125I-laminin fragment P1 binding to nidogen
Conditions: for inhibitory activity in words: laminin-nidogen binding competition; for IC50 higher / less active than fragment P1: relative to laminin fragment P1; for higher inhibitory activity compared with loop a,b: relative to synthetic loop a,b peptide
Method: A radioligand competition assay was used for measurement of relative binding affinities (Mann K. et al. (1988), Eur. J. Biochem., 178, 71-80; Fox, J. W. et al. (1991), EMBO J., 10, 3137-3146). A fixed concentration of recombinant nidogen (0.2 nM) was incubated overnight at 4° C. with inhibitors at varying concentrations, followed by the addition of ^125 I-labeled laminin fragment P1 (0.01 nM; 10,000-20,000 c.p.m.) for the same incubation period. Bound and non-bound fragment P1 was then separated by antibodies against nidogen. Competitor concentrations causing 50% inhibition (IC50) were determined from dose-response profiles. […] IC50 values compared from different assays were normalized to a single fragment P1 value.

[1] = Table III, amino acid replacements in heptapeptide NIDPNAV, read-out: IC50 (inhibitory capability for laminin-nidogen binding)
[2] = Table II, synthetic loops of EGF-like repeat 4 and smaller synthetic and proteolytic fragments, read-out: IC50 (inhibitory capacity)
[3] = Table IV, recombinant mutants and chimeric structures of γ1III4, read-out: IC50 (inhibitory activity for laminin-nidogen binding)

NVDPSAV [NVDPSAV]
pIC50 [1]: < 3.74

NIDPNA [NIDPNA]
pIC50 [2]: < 3.34

NVDPNAS [NVDPNAS]
pIC50 [1]: < 3.80

NC(=O)CC[C@H](NC(=O)[C@H](CS)NC(=O)[C@@H]1CCCN1)C(=O)N[C@@H](CS)C(=O)N[C@@H](CC(N)=O)C(=O)O [E3, PCQCN] (H-PCQCN-OH; N-terminus assumed)
pIC50 [2]: < 4.02
inhibitory activity in words: inactive

γ1III4Y819/825-A, reduced: γ1III4Y819/825-A reduced and alkylated under denaturing conditions
pIC50 [3]: 6.37

NVDPSAS [NVDPSAS]
pIC50 [1]: < 3.54

CC[C@H](C)[C@@H]1NC(=O)[C@@H](NC(=O)[C@@H](N)CCCCN)CSSC[C@@H](C(=O)N[C@@H](CC(=O)O)C(=O)O)NC(=O)[C@H](Cc2ccc(O)cc2)NC(=O)[C@H](Cc2ccccc2)NC(=O)CNC(=O)[C@H](C)NC(=O)[C@H]([C@@H](C)O)NC(=O)[C@H](CC(N)=O)NC(=O)[C@H](Cc2ccc(O)cc2)NC1=O [loop c, oxidized] (HELM PEPTIDE1{K.C.I.Y.N.T.A.G.F.Y.C.D}$PEPTIDE1,PEPTIDE1,2:R3-11:R3$$$V2.0)
pIC50 [2]: < 3.70
pIC50 (read-out: IC50): 3.70 to 4.05

γ1III4: recombinant nidogen binding EGF-like repeat 4 of laminin γ1 chain domain III, 56 residues [reference compound]
pIC50 [3]: 10.30
pIC50 (read-out: IC50): 10.30

IDPNAVGN [IOPNAVGN]
pIC50 [2]: 5.80

CC[C@H](C)[C@@H]1NC(=O)[C@@H](NC(=O)[C@H](CCCCN)NC(=O)[C@H](CC(C)C)NC(=O)[C@@H]2CSSC[C@H](NC(=O)[C@@H](N)CCC(N)=O)C(=O)N[C@@H](CC(N)=O)C(=O)N[C@@H](CC(=O)O)C(=O)N[C@@H](CC(N)=O)C(=O)N[C@@H]([C@@H](C)CC)C(=O)N[C@@H](CC(=O)O)C(=O)N3CCC[C@H]3C(=O)N[C@@H](CC(N)=O)C(=O)N[C@@H](C)C(=O)N[C@@H](C(C)C)C(=O)NCC(=O)N2)CSSC[C@@H](C(=O)N[C@@H](CC(=O)O)C(=O)O)NC(=O)[C@H](Cc2ccc(O)cc2)NC(=O)[C@H](Cc2ccccc2)NC(=O)CNC(=O)[C@H](C)NC(=O)[C@H]([C@@H](C)O)NC(=O)[C@H](CC(N)=O)NC(=O)[C@H](Cc2ccc(O)cc2)NC1=O [loop a,c, oxidized, QCNDNIDPNAVGCLKC1YNTAGFYCD] (HELM PEPTIDE1{Q.C.N.D.N.I.D.P.N.A.V.G.C.L.K.C.I.Y.N.T.A.G.F.Y.C.D}$PEPTIDE1,PEPTIDE1,2:R3-13:R3|PEPTIDE1,PEPTIDE1,16:R3-25:R3$$$V2.0; N-terminus and C-terminus assumed)
IC50 higher / less active than fragment P1: 300 fold
higher inhibitory activity compared with loop a,b: 20 fold

CC[C@H](C)[C@H](NC(=O)[C@H](CC(N)=O)NC(=O)[C@H](CC(=O)O)NC(=O)[C@H](CC(N)=O)NC(=O)[C@H](CS)NC(=O)[C@H](CCC(N)=O)NC(=O)[C@H](CS)NC(=O)[C@@H]1CCCN1)C(=O)N[C@@H](CC(=O)O)C(=O)N1CCC[C@H]1C(=O)N[C@@H](CC(N)=O)C(=O)N[C@@H](C)C(=O)N[C@H](C(=O)NCC(=O)N[C@@H](CC(N)=O)C(=O)N[C@@H](CS)C(=O)N[C@@H](CC(N)=O)C(=O)N[C@@H](CCCNC(=N)N)C(=O)N[C@@H](CC(C)C)C(=O)N[C@H](C(=O)NCC(=O)N[C@@H](CCC(=O)O)C(=O)N[C@@H](CS)C(=O)N[C@@H](CC(C)C)C(=O)O)[C@@H](C)O)C(C)C [loop a,b, non-oxidized] (H-PCQCNDNIDPNAVGNCNRLTGECL-OH; N-terminus and C-terminus assumed)
IC50 higher / less active than fragment P1: 5,000 fold

γ1III3ab4cd: recombinant chimera: loop a,b of repeat 3 with loop c,d of repeat 4 (PCPCPGGSSCAIVPKTKEVVCTHCIYNTAGFYCDRCKEGFFGNPLAPNPADKCK)
pIC50 [3]: 5.96

LTGECL [T2, LTGECL]
pIC50 [2]: 4.92

CC[C@H](C)[C@@H]1NC(=O)[C@H](CC(N)=O)NC(=O)[C@H](CC(=O)O)NC(=O)[C@H](CC(N)=O)NC(=O)[C@@H]2CSSC[C@@H](C(=O)N[C@@H](CC(C)C)C(=O)O)NC(=O)[C@H](CCC(=O)O)NC(=O)CNC(=O)[C@H]([C@@H](C)O)NC(=O)[C@H](CC(C)C)NC(=O)[C@H](CCCNC(=N)N)NC(=O)[C@H](CC(N)=O)NC(=O)[C@H](CSSC[C@H](NC(=O)[C@@H]3CCCN3)C(=O)N[C@@H](CCC(N)=O)C(=O)N2)NC(=O)[C@H](CC(N)=O)NC(=O)CNC(=O)[C@H](C(C)C)NC(=O)[C@H](C)NC(=O)[C@H](CC(N)=O)NC(=O)[C@@H]2CCCN2C(=O)[C@H](CC(=O)O)NC1=O [loop a,b, oxidized] (HELM PEPTIDE1{P.C.Q.C.N.D.N.I.D.P.N.A.V.G.N.C.N.R.L.T.G.E.C.L}$PEPTIDE1,PEPTIDE1,2:R3-16:R3|PEPTIDE1,PEPTIDE1,4:R3-23:R3$$$V2.0)
pIC50 (read-out: IC50): 6.40

CC(C)C[C@H](NC(=O)[C@H](CS)NC(=O)[C@H](CCC(=O)O)NC(=O)CNC(=O)[C@@H](NC(=O)[C@H](CC(C)C)NC(=O)[C@H](CCCNC(=N)N)NC(=O)[C@H](CC(N)=O)NC(=O)[C@H](CS)NC(=O)[C@H](CC(N)=O)NC(=O)CNC(=O)[C@@H](NC(=O)[C@H](C)NC(=O)[C@H](CC(N)=O)NC(=O)[C@@H]1CCCN1C(=O)[C@@H](N)CC(=O)O)C(C)C)[C@@H](C)O)C(=O)O [E2, DPNAVGNCNRLTGECL] (H-DPNAVGNCNRLTGECL-OH; C-terminus assumed)
pIC50 [2]: 5.52

γ1III4Y825-A: recombinant γ1III4 with Tyr825 mutated to Ala
pIC50 [3]: 10.22
inhibitory activity in words: without significant effect on inhibitory activity

γ1III4Y819-A: recombinant γ1III4 with Tyr819 mutated to Ala
pIC50 [3]: 8.52

γ1III4Y819/825-A: recombinant γ1III4 with Tyr819 and Tyr825 mutated to Ala
pIC50 [3]: 8.82
decrease in activity after reduction and alkylation (reduced and alkylated under denaturing conditions versus disulfide-bonded form): ~ 300 fold

CC(C)C[C@@H]1NC(=O)[C@@H]2CCCN2C(=O)[C@H](CC(N)=O)NC(=O)CNC(=O)[C@H](Cc2ccccc2)NC(=O)[C@H](Cc2ccccc2)NC(=O)CNC(=O)[C@H](CCC(=O)O)NC(=O)[C@H](CCCCN)NC(=O)[C@@H](NC(=O)[C@@H](N)CCCNC(=N)N)CSSC[C@@H](C(=O)N[C@@H](CCCCN)C(=O)O)NC(=O)[C@H](CCCCN)NC(=O)[C@H](CC(=O)O)NC(=O)[C@H](C)NC(=O)[C@@H]2CCCN2C(=O)[C@H](CC(N)=O)NC(=O)[C@@H]2CCCN2C(=O)[C@H](C)NC1=O [loop d, oxidized] (HELM PEPTIDE1{R.C.K.E.G.F.F.G.N.P.L.A.P.N.P.A.D.K.C.K}$PEPTIDE1,PEPTIDE1,2:R3-19:R3$$$V2.0; N-terminus and C-terminus assumed)
pIC50 [2]: < 4.05
inhibitory activity in words: No inhibitory activity
pIC50 (read-out: IC50): 3.70 to 4.05

AVGNCNR [Th1, AVGNCNR]
pIC50 [2]: < 4.52
inhibitory activity in words: inactive

NIDPNAV [NIDPNAV]
pIC50 [2]: 6.10
pIC50 (read-out: IC50): 6.10

γ1III4ab3cd: recombinant chimera: loop a,b of repeat 4 with loop c,d of repeat 3 (PCQCNDNIDPNAVGNCNRLTGECLKCPTGTAGKRCELCDDGYFGDPLGSNGPVRLCR)
pIC50 [3]: 7.10
further decrease in activity (loop c replaced by loop c of a non-binding repeat, relative to the Tyr819 modification): 30 fold
pIC50 (read-out: IC50): 7.10
higher inhibitory activity compared with loop a,b: 3 fold

γ1III4D800,N: recombinant γ1III4 with Asp800 mutated to Asn
pIC50 [3]: 6.00

γ1III4N802-S: recombinant γ1III4 with Asn802 mutated to Ser
reduction in activity of mutant (relative to wild-type γ1III4): ~ 100,000 fold

NIDPNAVGN [NIDPNAVGN]
pIC50 [2]: 6.22
pIC50 (read-out: IC50): 6.22
